Among the data in US20260297070A1, “CYCLIC [COMPOUND LEFT OUT] WRN INHIBITORS” (Nimbus Wadjet, Inc., priority 2023, published 2026) are IC50 values, retold here.

In the assay the target is T1, human Werner helicase (WRN-BV08, Uniprot Q14191, amino acids 517-1235 with L1074F point mutation) (Homo sapiens, UniProt Q14191, L1074F).
T1 construct: Uniprot Q14191, amino acids 517-1235 with L1074F point mutation; TEV-cleavable 8×His (C, cleaved yes); made in house; host or cells: Sf9 insect cells (baculovirus)
Briefly: WRN (BV08) ADP-Glo Assay. Type of assay: biochemical. Particulars: 0.15 nM WRN, 5 μM ATP, 0.1 nM DNA duplex, 15 min preincubation, 60 min at 25° C., pH 7.5, 1% DMSO; read-out: ADP-Glo_hWRN_IC50. A digest of the protocol:
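WRN 0.15 nM + cpd, 15 min 25 °C; add 5 μM ATP / 0.1 nM annealed DNA duplex; 60 min 25 °C; ADP-Glo stop, RLU. Buffer 20 mM Bicine pH 7.5, 1 mM MgCl2, 10 mM KCl, 1 mM TCEP. IC50, 4-parameter fit.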
(In general: ADP-Glo first removes unused ATP, then detects ADP through luciferase.)

Where only a bound is given, the exact number is not on record here.

T1 sequence (Q14191 with tags, fused parts or gaps L1074F limits assumed): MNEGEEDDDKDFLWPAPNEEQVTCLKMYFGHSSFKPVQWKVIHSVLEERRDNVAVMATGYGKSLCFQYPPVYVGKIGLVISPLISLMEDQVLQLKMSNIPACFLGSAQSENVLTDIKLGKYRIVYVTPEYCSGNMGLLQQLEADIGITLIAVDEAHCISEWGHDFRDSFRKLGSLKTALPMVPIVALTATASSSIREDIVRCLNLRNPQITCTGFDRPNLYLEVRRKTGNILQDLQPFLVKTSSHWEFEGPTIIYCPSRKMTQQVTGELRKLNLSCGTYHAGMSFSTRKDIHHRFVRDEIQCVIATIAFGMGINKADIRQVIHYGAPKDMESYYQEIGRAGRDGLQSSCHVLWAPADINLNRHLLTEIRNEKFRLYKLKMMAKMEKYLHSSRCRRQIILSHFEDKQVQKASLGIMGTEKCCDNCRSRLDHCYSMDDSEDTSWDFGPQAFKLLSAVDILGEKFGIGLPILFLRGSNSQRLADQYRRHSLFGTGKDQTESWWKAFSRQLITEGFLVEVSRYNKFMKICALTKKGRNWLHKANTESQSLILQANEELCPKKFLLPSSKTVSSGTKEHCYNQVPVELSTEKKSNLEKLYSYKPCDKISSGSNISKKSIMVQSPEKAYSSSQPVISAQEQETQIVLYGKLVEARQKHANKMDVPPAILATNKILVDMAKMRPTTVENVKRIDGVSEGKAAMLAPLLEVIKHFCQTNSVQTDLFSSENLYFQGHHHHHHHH

With `CC(O)c1cc(CN(C(=O)Cc2ccc(-n3cccc3)cc2)C2C=CS(=O)(=O)C2)ccn1` (centres unmarked) [I-169, N-(1,1-dioxo-2,3-dihydro-1lambda6-thiophen-3-yl)-N-{[2-(1-hydroxyethyl)pyridin-4-yl]methyl}-2-[4-(1H-pyrrol-1-yl)phenyl]acetamide], the IC50 is 0.5 to 5 µM. The figure for `O=C(Cc1ccc(-n2cccc2)cn1)N(Cc1ccncc1)C1C=CS(=O)(=O)C1` (centres unmarked) [I-319, N-(1,1-dioxo-2,3-dihydro-1lambda6-thiophen-3-yl)-N-[(pyridin-4-yl)methyl]-2-[5-(1H-pyrrol-1-yl)pyridin-2-yl]acetamide] is 10 to 50 µM; for `COC(C(=O)N(Cc1ccnc(C(C)(C)O)c1)C1C=CS(=O)(=O)C1)c1ccc(C(F)(F)F)cc1` (centres unmarked) [I-209, N-(1,1-dioxo-2,3-dihydro-1lambda6-thiophen-3-yl)-N-{[2-(2-hydroxypropan-2-yl)pyridin-4-yl]methyl}-2-methoxy-2-[4-(trifluoromethyl)phenyl]acetamide] it is 0.5 to 5 µM. Next, `COc1cc(CN(C(=O)C(c2ccc(-c3ccc(F)c(F)c3)cc2F)n2cccn2)[C@@H]2C=CS(=O)(=O)C2)ccn1` (single isomer, unassigned) [I-672, (2R*)-N-[(3R)-1,1-dioxo-2,3-dihydro-1lambda6-thiophen-3-yl]-N-[(2-methoxypyridin-4-yl)methyl]-2-(1H-pyrazol-1-yl)-2-{3,3′,4′-trifluoro-[1,1′-biphenyl]-4-yl}acetamide]: 5 to 10 µM; `COc1cc([C@H](C)N(C(=O)Cn2cc(-c3cc(F)c(F)c(F)c3)cn2)[C@@H]2C=CS(=O)(=O)C2)ccn1` [I-829, N-[(3R)-1,1-dioxo-2,3-dihydro-1lambda6-thiophen-3-yl]-N-[(1S)-1-(2-methoxypyridin-4-yl)ethyl]-2-[4-(3,4,5-trifluorophenyl)-1H-pyrazol-1-yl]acetamide]: under 0.5 µM. The figure for `COc1cc(CN(C(=O)Cc2ccc(-c3ccc(F)cc3O)nc2)C2C=CS(=O)(=O)C2)ccn1` (single isomer, unassigned) [I-353] is 10 to 50 µM.

In the case of `COc1cc(CN(C(=O)Cn2cnc(-c3ccc(F)cc3)c2)[C@@H]2C=CS(=O)(=O)C2)ccn1` [I-597, N-[(3R)-1,1-dioxo-2,3-dihydro-1lambda6-thiophen-3-yl]-2-[4-(4-fluorophenyl)-1H-imidazol-1-yl]-N-[(2-methoxypyridin-4-yl)methyl]acetamide], the IC50 is over 50 µM. Regarding `COc1cc(CN(C(=O)Cc2ccn(-c3ccc(Cl)cc3)n2)C2C=CS(=O)(=O)C2)ccn1` (centres unmarked) [I-380, 2-[1-(4-chlorophenyl)-1H-pyrazol-3-yl]-N-(1,1-dioxo-2,3-dihydro-1lambda6-thiophen-3-yl)-N-[(2-methoxypyridin-4-yl)methyl]acetamide], the IC50 is over 50 µM. Next, `O=C(Cc1ccc(-n2cccc2)cc1)N(CCc1ccncc1)C1C=CS(=O)(=O)C1` (centres unmarked) [I-462, N-(1,1-dioxo-2,3-dihydro-1lambda6-thiophen-3-yl)-N-[2-(pyridin-4-yl)ethyl]-2-[4-(1H-pyrrol-1-yl)phenyl]acetamide]: over 50 µM; `O=C(Cc1ccc(-n2cccc2)cc1)N(Cc1ccccc1Br)C1C=CS(=O)(=O)C1` (centres unmarked) [I-534, N-[(2-bromophenyl)methyl]-N-(1,1-dioxo-2,3-dihydro-1lambda6-thiophen-3-yl)-2-[4-(1H-pyrrol-1-yl)phenyl]acetamide]: over 50 µM. The figure for `COc1cc(CN(C(=O)Cn2cc(-c3cc(F)c(F)c(F)c3)cn2)[C@@H]2C=CS(=O)(=O)C2)ccn1` [I-764, N-[(3R)-1,1-dioxo-2,3-dihydro-1lambda6-thiophen-3-yl]-N-[(2-methoxypyridin-4-yl)methyl]-2-[4-(3,4,5-trifluorophenyl)-1H-pyrazol-1-yl]acetamide] is under 0.5 µM; for `CN(C)c1cc(CN(C(=O)Cc2ccc(S(F)(F)(F)(F)F)cc2)C2C=CS(=O)(=O)C2)ccn1` (centres unmarked) [I-89, N-{[2-(dimethylamino)pyridin-4-yl]methyl}-N-(1,1-dioxo-2,3-dihydro-1lambda6-thiophen-3-yl)-2-[4-(pentafluoro-lambda6-sulfanyl)phenyl]acetamide] it is 0.5 to 5 µM; for `O=C(Cc1ccc(-n2cccc2)cc1)N(Cc1ccccn1)C1C=CS(=O)(=O)C1` (centres unmarked) [I-467, N-(1,1-dioxo-2,3-dihydro-1lambda6-thiophen-3-yl)-N-[(pyridin-2-yl)methyl]-2-[4-(1H-pyrrol-1-yl)phenyl]acetamide] it is over 50 µM. For `O=C(Cn1cc(-c2cc(F)c(F)c(F)c2)cn1)N(Cc1ccc(Cc2ccncc2)cc1)C1C=CS(=O)(=O)C1` (centres unmarked) [I-782, N-(1,1-dioxo-2,3-dihydro-1lambda6-thiophen-3-yl)-N-({4-[(pyridin-4-yl)methyl]phenyl}methyl)-2-[4-(3,4,5-trifluorophenyl)-1H-pyrazol-1-yl]acetamide], the IC50 was under 0.5 µM. Take `CC(C)(O)c1cc(CN(C(=O)Cn2cc3cc(S(F)(F)(F)(F)F)ccc3n2)[C@@H]2C=CS(=O)(=O)C2)ccn1` [I-7, (R)—N-(1,1-dioxido-2,3-dihydrothiophen-3-yl)-N-((2-(2-hydroxypropan-2-yl)pyridin-4-yl)methyl)-2-(5-(pentafluoro-λ^6-sulfaneyl)-2H-indazol-2-yl)acetamide]: the IC50 was under 0.5 µM. The figure for `CC(C)(O)c1cc(CN(C(=O)C(c2ccc(-c3ccc(F)c(F)c3)cc2F)n2ccnn2)[C@@H]2C=CS(=O)(=O)C2)ccn1` (single isomer, unassigned) [I-800] is under 0.5 µM; for `O=C(Cn1cc2cc(C(F)(F)F)ccc2n1)N(Cc1ccncc1)C1C=CS(=O)(=O)C1` (centres unmarked) [I-589, N-(1,1-dioxo-2,3-dihydro-1lambda6-thiophen-3-yl)-N-[(pyridin-4-yl)methyl]-2-[5-(trifluoromethyl)-2H-indazol-2-yl]acetamide] it is 0.5 to 5 µM. As to `N#Cc1cccc(CN(C(=O)Cc2ccc(-n3cccc3)cc2)C2C=CS(=O)(=O)C2)c1` (centres unmarked) [I-286, N-[(3-cyanophenyl)methyl]-N-(1,1-dioxo-2,3-dihydro-1lambda6-thiophen-3-yl)-2-[4-(1H-pyrrol-1-yl)phenyl]acetamide], the IC50 was 10 to 50 µM. On to `Cn1ncc2cc(CN(C(=O)Cc3ccc(-n4cccc4)cc3)C3C=CS(=O)(=O)C3)ccc21` (centres unmarked) [I-226, N-(1,1-dioxo-2,3-dihydro-1lambda6-thiophen-3-yl)-N-[(1-methyl-1H-indazol-5-yl)methyl]-2-[4-(1H-pyrrol-1-yl)phenyl]acetamide], for which the IC50 was in the range of 5 to 10 µM. The figure for `Cc1ccc(-c2ccc(C(C(=O)N(C)C)C(=O)N(Cc3ccncc3)C3C=CS(=O)(=O)C3)cc2)cc1` (centres unmarked) [I-277, N-(1,1-dioxo-2,3-dihydro-1lambda6-thiophen-3-yl)-N′,N′-dimethyl-2-{4′-methyl-[1,1′-biphenyl]-4-yl}-N-[(pyridin-4-yl)methyl]propanediamide] is 5 to 10 µM; for `COc1cc(CN(C(=O)Cn2nc(C)c3cc(C(F)(F)F)ccc32)[C@@H]2C=CS(=O)(=O)C2)ccn1` [I-722, N-[(3R)-1,1-dioxo-2,3-dihydro-1lambda6-thiophen-3-yl]-N-[(2-methoxypyridin-4-yl)methyl]-2-[3-methyl-5-(trifluoromethyl)-1H-indazol-1-yl]acetamide] it is over 50 µM. For the compound `O=C(Cn1nc(-c2ccccc2)ccc1=O)N(Cc1ccncc1)C1C=CS(=O)(=O)C1` (centres unmarked) [I-326, N-(1,1-dioxo-2,3-dihydro-1lambda6-thiophen-3-yl)-2-(6-oxo-3-phenyl-1,6-dihydropyridazin-1-yl)-N-[(pyridin-4-yl)methyl]acetamide], the IC50 was in the range of 10 to 50 µM.

On to `COc1cc(CN(C(=O)Cc2c(F)cc(-c3ccc(F)cc3)cc2F)C2C=CS(=O)(=O)C2)ccn1` (centres unmarked) [I-168, N-(1,1-dioxo-2,3-dihydro-1lambda6-thiophen-3-yl)-N-[(2-methoxypyridin-4-yl)methyl]-2-{3,4′,5-trifluoro-[1,1′-biphenyl]-4-yl}acetamide], for which the IC50 is 0.5 to 5 µM. The figure for `Cc1nn(CC(=O)N(Cc2ccncc2)C2C=CS(=O)(=O)C2)cc1-c1ccccc1` (centres unmarked) [I-446, N-(1,1-dioxo-2,3-dihydro-1lambda6-thiophen-3-yl)-2-(3-methyl-4-phenyl-1H-pyrazol-1-yl)-N-[(pyridin-4-yl)methyl]acetamide] is over 50 µM. The figure for `O=C(Cc1ccc(S(F)(F)(F)(F)F)cc1)N(Cc1ccncc1)C1C=CS(=O)(=O)C1` (single isomer, unassigned) [I-336] is 10 to 50 µM; for `O=C(Cc1ccc(-n2cccc2)cc1)N(Cc1ccc(O)cc1)C1C=CS(=O)(=O)C1` (centres unmarked) [I-303, N-(1,1-dioxo-2,3-dihydro-1lambda6-thiophen-3-yl)-N-[(4-hydroxyphenyl)methyl]-2-[4-(1H-pyrrol-1-yl)phenyl]acetamide] it is 10 to 50 µM. For the compound `O=C(Cc1ccc(S(F)(F)(F)(F)F)cc1)N(Cc1nc(-c2nn[nH]n2)cs1)C1C=CS(=O)(=O)C1` (centres unmarked) [I-626, N-(1,1-dioxo-2,3-dihydro-1lambda6-thiophen-3-yl)-2-[4-(pentafluoro-lambda6-sulfanyl)phenyl]-N-{[4-(2H-1,2,3,4-tetrazol-5-yl)-1,3-thiazol-2-yl]methyl}acetamide], the IC50 was under 0.5 µM. Next, `COc1cc(CN(C(=O)Cc2ccc(-n3ccccc3=O)cc2F)C2C=CS(=O)(=O)C2)ccn1` (centres unmarked) [I-381, N-(1,1-dioxo-2,3-dihydro-1lambda6-thiophen-3-yl)-2-[2-fluoro-4-(2-oxo-1,2-dihydropyridin-1-yl)phenyl]-N-[(2-methoxypyridin-4-yl)methyl]acetamide]: over 50 µM; `COc1cc(CN(C(=O)C2Cc3cc(-n4cccc4C)ccc3O2)C2C=CS(=O)(=O)C2)ccn1` (centres unmarked) [I-109, N-(1,1-dioxido-2,3-dihydrothiophen-3-yl)-N-((2-methoxypyridin-4-yl)methyl)-5-(2-methyl-1H-pyrrol-1-yl)-2,3-dihydrobenzofuran-2-carboxamide]: 0.5 to 5 µM.
